Reference: the Deep4Chem optical property database

Experiment: solvent given as SMILES

emission maximum (in CC#N) [nm] | emission maximum (in ClCCl) [nm] | SMILES | emission maximum (in Cc1ccccc1) [nm] | emission maximum (in CO) [nm] | further results
 | 465 | CC(C)(C)c1ccc(-c2c3cccc4c(-c5ccccc5)cc5c(-c6ccc(C(C)(C)C)cc6)c6cccc7c(-c8ccccc8)cc2c(c76)c5c43)cc1 |  |  | 
 | 585 | COc1ccccc1-c1c2ccc(=[N+]3CCCCC3)cc-2oc2cc(N3CCCCC3)ccc12 |  |  | emission maximum (in CCO): 586 nm
 | 451 | CCCCn1c(-c2ccc(-c3nnc(-c4ccc(-c5nc6c7ccccc7c7ccccc7c6n5CCCC)cc4)o3)cc2)nc2c3ccccc3c3ccccc3c21 |  |  | 
 | 550 | Cc1ccc(N(c2ccc(C)cc2)c2ccc(Oc3nnc(Cl)nn3)cc2)cc1 |  |  | 

More lines, now with the values behind:

SMILES | emission maximum (in CC#N) [nm] | emission maximum (in ClCCl) [nm] | emission maximum (in Cc1ccccc1) [nm] | emission maximum (in CO) [nm] | further results
CCCCCCCCCCCCOc1ccc(C2=c3sc4ccccc4c3=[N+]3C2=Nc2c(-c4ccc(OCCCCCCCCCCCC)cc4)c4sc5ccccc5c4n2[B-]3(F)F)cc1 |  |  | 804 |  | emission maximum (in C1CCOC1): 813 nm; emission maximum (in ClC(Cl)Cl): 808 nm
CCOC(=O)CC[N+]1=c2cc3c(cc2CCC1)=Cc1c(c2ccc(N(C)C)cc2oc1=O)O3 | 643 | 637 |  | 641 | emission maximum (in O): 644 nm
F[B-]1(F)n2cccc2C(c2ccccc2)=C2C=CC=[N+]21 |  | 522 | 521 |  | 
CC(C)c1cccc(C(C)C)c1N1C(=O)c2cc(Oc3ccc(C(C)(C)C)cc3)c3c4c(Oc5ccc(C(C)(C)C)cc5)cc5c6c(cc(Oc7ccc(C(C)(C)C)cc7)c(c7c(Oc8ccc(C(C)(C)C)cc8)cc(c2c37)C1=O)c64)C(=O)N(c1c(C(C)C)cccc1C(C)C)C5=O |  |  | 611 |  | 
CC(C)(C)n1c(=O)c2cc3ccc4cccc5ccc(c2c1=O)c3c45 |  |  |  |  | emission maximum (in ClC(Cl)Cl): 451 nm
CC(C)(C)c1ccc(-c2cc3c(-c4ccc(C(C)(C)C)cc4)c4cccc5c(-c6ccc(C(C)(C)C)cc6)cc6c(-c7ccc(C(C)(C)C)cc7)c7cccc2c7c3c6c54)cc1 | 464 | 467 | 467 | 462 | emission maximum (in C1CCCCC1): 463 nm
COc1ccc(C2=C3C=c4c(oc5cc6c(cc45)[C@H]4CC[C@]5(C)C(=O)CC[C@H]5[C@@H]4CC6)=[N+]3[B-](F)(F)n3c2cc2c4cc5c(cc4oc23)CC[C@@H]2[C@@H]5CC[C@]3(C)C(=O)CC[C@@H]23)cc1 |  |  |  | 613.5 | emission maximum (in CCOC(C)=O): 615 nm; emission maximum (in CCOCC): 611.5 nm
Nc1ccc2ccc3cccc4ccc1c2c34 | 425 |  |  | 428 | emission maximum (in CCCCOCCCC): 417 nm
Cc1cc(C(F)(F)F)nc2c1ccc1nc(-c3ccc(F)c(F)c3)cn12 | 460 | 451 | 451 | 456 | emission maximum (in CCCCCC): 433 nm; emission maximum (in CCCCOC(C)=O): 453 nm; emission maximum (in CCOC(C)=O): 454 nm; emission maximum (in ClC(Cl)Cl): 448 nm; emission maximum (in c1ccccc1): 450 nm
COc1ccc(-c2csc(/C(C#N)=C/c3ccc(Cl)cc3)n2)cc1 | 543 |  |  |  | 
CCOC(=O)c1c(-c2cc3ccccc3oc2=O)nn(-c2ccc(Cl)cc2)c1C(=O)OCC |  | 402 |  |  | 
C#CCOc1ccc(/C=C/C2=[N+]3C(=C(c4ccc(N(CC)CC)cc4)c4c(C)cc(/C=C/c5ccc(S(=O)(=O)O)cc5S(=O)(=O)O)n4[B-]3(F)F)C(C)=C2)cc1 |  |  |  |  | emission maximum (in O): 660 nm
CC(C)(C)c1ccc(-c2nnc(-c3c(-n4c5ccccc5c5ccccc54)c(-n4c5ccccc5c5ccccc54)c(-c4nnc(-c5ccc(C(C)(C)C)cc5)o4)c(-n4c5ccccc5c5ccccc54)c3-n3c4ccccc4c4ccccc43)o2)cc1 |  |  | 569 |  | emission maximum (in c1cc(-n2c3ccccc3c3ccccc32)nc(-n2c3ccccc3c3ccccc32)c1): 527 nm
N#CSC1=CC2=C(c3ccccc3)c3ccc(SC#N)n3[B-](F)(F)[N+]2=C1N1CCOCC1 | 585 | 594 |  | 583 | emission maximum (in CCCCCC): 588 nm; emission maximum (in CCOC(C)=O): 589 nm
Fc1c(-n2c3ccccc3c3ccccc32)c(F)c(-n2c3ccccc3c3ccccc32)c(-c2nnc(-c3ccccc3)o2)c1-n1c2ccccc2c2ccccc21 |  |  | 490 |  | 
Cc1ccc(-c2cnc3nn4ccccc4c3c2)cc1 |  |  |  |  | emission maximum (in C1CCOC1): 418 nm
